Reference: patent US12433872B2, “Treatment of Acanthamoeba or Balamuthia trophozoites and/or cysts” (GEORGIA STATE UNIVERSITY RESEARCH FOUNDATION, INC., priority 2018, dated 2025)
pIC50: −log10 of the molar value. Like-named read-outs stand apart in the source and are kept apart here.

How the values were obtained:
Assay type in all cases: cell-based
[1] = system: Acanthamoeba castellanii (ATCC50370) cysts; experiment: Encystation drug susceptibility / excystation viability assay, 30 day recovery, A. castellanii cysts; conditions: ATCC50370, 720 h, read-out: A. castellanii 30 day MCC
Protocol: (§1) The trophozoites of Acanthamoeba were harvested by mechanical detachment and collected via centrifugation at 4000 rpm at 4° C. for 5 minutes. The trophozoites were washed in 10 mL of Neff's Encystment Media (NEM). NEM composition is 20 mM Tris-HCL [pH 8.8] (2.43 g/L), 100 mM KCL (7.46 g/L), 8 mM MgSO4 (962.96 mg/L), 0.4 mM CaCL2 58.81 mg/L) and 1 mM NaHCO3 (84.01 mg/L) (Neff et al. 1964). All reagents were bought from Sigma Aldrich. Centrifugation of the trophozoites was repeated to ensure any residual growth medium was removed. The pellet was resuspended in a final volume of 15 mL of NEM, cultured in 75 cm^2 corning tissue culture flasks and incubated vertically in a thermal shaker, shaken at 100 rpm at 37° C. for 72 hours to produce fully matured cysts. NEM was supplemented with 250 μg of penicillin/streptomycin. Fresh cysts were produced each time for any experimentation.
(§2) At 72 hours the cysts were harvested using a cell scraper and collected via centrifugation at 4000 rpm at 25° C. for 10 minutes. The cells were washed twice in 10 mL of HyClone™ water, Molecular Biology Grade, and centrifugation was repeated to ensure the removal of any residual NEM. The cell suspension was washed with 0.5% sodium dodecyl sulphate (SDS) to remove any remaining trophozoites and immature cysts. The fully mature cysts were further washed twice with 10 mL of HyClone™ water and 1% NEM, centrifugation was repeated to remove any residue of SDS. The concentration of mature cysts was determined using a haemocytometer and adjusted to 1×10^4 cysts/mL in NEM.
(§3) All test compounds were prepared as 5 mg/mL stock solutions in dimethylsulfoxide (DMSO). All compounds were diluted in NEM, serially diluted in 2-fold dilutions 6 or 11 times, yielding a screening concentration range of 1.56 μg/mL to 50 μg/mL or 48 ng/mL to 50 μg/mL with a final highest screening concentration of 1% DMSO.
(§4) Based on this, a strain specific test period and also a 30 day non-specific recovery time were considered. For the 30 day recovery period, the media was changed 5 times to ensure the contents of wells dis not evaporate and have an effect within the results of the assay.
(§5) 90 μL of 1×10^4 Cysts/ml and 10 μL of experimental compounds from the screening plates were produced according to the protocols above and combined into a Corning clear 96 well treated tissue culture plate. Control wells include cysts in non-drug treated, 1% DMSO, NEM (to be used for negative growth control), NEM Blank, PG blank and cysts in non-drug treated, 1% DMSO, PG (to excyst cells and to be used for positive growth control). The total well volume for all wells was 100 μL. The drug exposed plates were screened at 27° C. for 6 or 24 hours only. At the exposure time point the plates were centrifuged at 4000 rpm at 25° C. for 10 minutes and washed twice with phosphate-buffered saline (PBS) to remove any residual experimental compound.
(§6) Once the plate(s) underwent the Encystation drug susceptibility process, all wells except the negative growth control and NEM blank wells received PG growth medium. All plates were left to recover at 27° C. for the strain specific time period of 5, 9 or 11 days depending on the species of Acanthamoeba. At each of the strain specific time points the plates were removed from incubation and microscopically analysed (qualitatively) for the excystation process for the emergence of excysted viable trophozoites or residual cysts. The presence of excysted trophozoites indicated viable amoebae (non-cystistatic or cysticidal—no effect) and the absence of excystation was considered as cystistatic/cysticidal effects.

[2] = system: Balamuthia mandrillaris trophozoites; experiment: Activity against Balamuthia mandrillaris trophozoites; conditions: for pIC50: Balamuthia mandrillaris
Protocol: Balamuthia mandrillaris trophozoites were thawed and grown in 10 ml of BM-3 medium. […] After autoclaving, complete BM-3 media was produced by the addition of 10% fetal bovine serum and 125 μg of penicillin/streptomycin antibiotics. The table describes all of the compounds and the activity against Balamuthia trophozoites compared to the activity for select Acanthamoeba trophozoites shown in Table 5.

A549 cells = experiment: Toxicity to human A549 cells
[3] = system: Acanthamoeba healyi cysts; experiment: Encystation drug susceptibility / excystation viability assay, 30 day recovery, A. healyi cysts; conditions: 720 h, read-out: A. healyi 30 day MCC
Protocol: as §1, §2, §3, §4, §5, §6

[4] = system: Acanthamoeba castellanii trophozoites; experiment: Activity against Acanthamoeba castellanii trophozoites
Protocol: Two Acanthamoeba species (Acanthamoeba castellanii—ATCC50370 and Acanthamoeba culbertsoni—ATCC30171) were bought from the American Type Culture Collection (ATCC) and one species (Acanthamoeba healyi) was donated from the Centers for Disease Control and Prevention (CDC) for our experimentations. Trophozoites were thawed and grown in 10 mL of a nutrient rich Peptose-Glucose (PG) media. The PG media composition is 83.26 mM Glucose (15 g/L), Protease Peptone (15 g/L, yeast extract is manufactured under controlled conditions to retain its vitamin content and other nutritive values such as free amino acids, no other composition information given), 2.2 mM KH2PO4 (300 mg/L), 2.97 μM Thiamine (1 mg/L), 99.86 μM L-methionine (14.9 mg/L), 4.6 μM Vitamin B12 (83.3 μl of 0.1 mg/mL stock/L) and 68 μM Biotin (83.3 μl of 0.2 mg/mL stock/L). […] One mL/L of the salt solution was added to the media stock prior to autoclaving. All reagents were purchased from Sigma Aldrich except the Glucose which was purchased from Alfa Aesar. The cell pellet was resuspended in a final volume of 10 mL of PG media, cultured in 75 cm^2 coming tissue culture flasks and incubated at 27° C. PG was supplemented with 125 μg of penicillin/streptomycin. Sub-culturing occurred twice per week to allow the continued growth and development of the Acanthamoeba trophozoites. […]

[5] = system: Acanthamoeba culbertsoni (ATCC30171) cysts; experiment: Encystation drug susceptibility / excystation viability assay, 30 day recovery, A. culbertsoni cysts; conditions: ATCC30171, 720 h, read-out: A. culbertsoni 30 day MCC
Protocol: as §1, §2, §3, §4, §5, §6

[6] = minimum cysticidal concentration, no recovery up to 30 days
[7] = trophozoites, n = 2, read-out: Balamuthia mandrillaris IC50
[8] = human A549 cells, read-out: A549 cell IC50
[9] = trophozoites, n = 2, Table 6, read-out: Acanthamoeba castellanii IC50

CC(C)NC(=N)c1ccc2nc(-c3ccc(Oc4ccc(-c5nc6ccc(C(=N)NC(C)C)cc6[nH]5)cc4F)cc3)[nH]c2c1 [Compound I, 2-(3-Fluoro-4-(4-(6-(N-isopropylcarbamimidoyl)-1H-benzo[d]imidazol-2-yl)phenoxy)phenyl)-N-isopropyl-1H-benzo[d]imidazole-6-carboximidamide]
MCC [1, 6]: 4.2 µM | times more potent than pentamide as reported in Schuster et al. ([2]; B. mandrillaris, versus pentamidine 29.38 μM): 587.6 | pIC50 ([2]; read-out: IC50 against B. mandrillaris): 7.30 | pIC50 [2, 7]: 7.30 | pIC50 (A549 cells; [8]): 5.46 | MCC [3, 6]: 4.2 µM | pIC50 [4, 9]: 6.15 | MCC [5, 6]: 8.41 µM

CC(C)NC(=N)c1ccc2nc(-c3ccc(Oc4ccc(-c5nc6ccc(C(=N)NC(C)C)cc6[nH]5)c(Cl)c4)cc3Cl)[nH]c2c1 [L, 2-2′-(Oxybis(2-chloro-4,1-phenylene))bis(N-isopropyl-3H-benzo[d]imidazole-6-carboximidamide)]
MCC [1, 6]: 2.88 µM | pIC50 [2, 7]: 7.10 | pIC50 (A549 cells; [8]): 5.38 | MCC [3, 6]: 2.88 µM | pIC50 [4, 9]: 6.41 | MCC [5, 6]: 2.88 µM

CC(C)NC(=N)c1ccc2nc(-c3ccc(Oc4cc(F)c(-c5nc6ccc(C(=N)NC(C)C)cc6[nH]5)c(F)c4)cc3Br)[nH]c2c1 [Compound G, 2-(2-Bromo-4-(3,5-difluoro-4-(6-(N-isopropylcarbamimidoyl)-1H-benzo[d]imidazol-2-yl)phenoxy)phenyl)-N-isopropyl-1H-benzo[d]imidazole-6-carboximidamide]
MCC [1]: 1.75 µM | pIC50 ([2]; read-out: Balamuthia mandrillaris IC50): 6.96 | pIC50 (A549 cells; Homo sapiens, A549, read-out: A549 cell IC50): 5.22 | MCC [3]: 1.75 µM | pIC50 ([4]; read-out: A. cactellanii Trophozoite IC50): 6.59 | pIC50 ([4]; read-out: Acanthamoeba castellanii IC50): 6.59 | MCC [5]: 1.75 µM

COc1cc(-c2nc3ccc(C(=N)NC(C)C)cc3[nH]2)ccc1Oc1ccc(-c2nc3ccc(C(=N)NC(C)C)cc3[nH]2)cc1F [J, 2-(3-Fluoro-4-(4-(6-(N-isopropylcarbamimidoyl)-1H-benzo[d]imidazol-2-yl)-2-methoxyphenoxy)phenyl)-N-isopropyl-1H-benzo[d]imidazole-6-carboximidamide]
MCC [1, 6]: 11.2 µM | pIC50 [2, 7]: 7.10 | pIC50 (A549 cells; [8]): 5.39 | MCC [3, 6]: 9.34 µM | pIC50 [4, 9]: 6.02 | MCC [5, 6]: 7.47 µM

N=C(c1ccc2nc(-c3ccc(Oc4ccc(-c5nc6ccc(C(=N)N7CCOCC7)cc6[nH]5)cc4)cc3)[nH]c2c1)N1CCOCC1 [BE]
pIC50 [2, 7]: 6.42 | pIC50 [4, 9]: 5.31

N=C(c1ccc2nc(-c3ccc(Oc4ccc(-c5nc6ccc(C(=N)N7CCCCCC7)cc6[nH]5)cc4)cc3)[nH]c2c1)N1CCCCCC1 [BD]
pIC50 [2, 7]: 6.46 | pIC50 [4, 9]: 5.24

N=C(NC1CCCC1)c1ccc2nc(-c3ccc(Oc4ccc(-c5nc6ccc(C(=N)NC7CCCC7)cc6[nH]5)cc4)cc3)[nH]c2c1 [BB]
pIC50 [2, 7]: 7.00 | pIC50 [4, 9]: 5.52

CC(C)NC(=N)c1ccc2nc(-c3ccc(Oc4ccc(-c5nc6ccc(C(=N)NC(C)C)cc6[nH]5)c(Cl)c4)c(C#N)c3)[nH]c2c1 [AA, 2-(2-Chloro-4-(2-cyano-4-(6-(N-isopropylcarbamimidoyl)-1H-benzo[d]imidazol-2-yl)phenoxy)phenyl)-N-isopropyl-1H-benzo[d]imidazole-6-carboximidamide]
pIC50 [2, 7]: 7.22 | pIC50 [4, 9]: 6.14

COc1ccc(-c2nc3ccc(-c4nc5ccc(C6=NCC(C)(C)CN6)cc5[nH]4)cc3[nH]2)cc1O [Compound AR, 5-(6-(5,5-dimethyl-1,4,5,6-tetrahydropyrimidin-2-yl)-1H,3′H-[2,5′-bibenzo[d]imidazol]-2′-yl)-2-methoxyphenol]
pIC50 [2, 7]: 6.18 | pIC50 [4, 9]: 5.70

N=C(N)c1ccc(-c2ccc(C(=O)Nc3cccc(C(=N)N)c3)cc2)cc1 [Compound AV]
pIC50 [2, 7]: 6.17 | pIC50 [4, 9]: 6.43

CN(C)CCNC(=O)c1ccc(-c2nc3ccc(-c4nc5ccc(C(=N)N)cc5[nH]4)cc3[nH]2)cc1 [Compound AK, 4-(6-carbamimidoyl-1H,3′H-[2,5′-bibenzo[d]imidazol]-2′-yl)-N-(2-(dimethylamino)ethyl)benzamide]
pIC50 [2, 7]: 7.10 | pIC50 [4, 9]: 4.54

COc1cc(-c2nc3ccc(C(=N)NC(C)C)cc3[nH]2)ccc1Oc1c(F)cc(-c2nc3ccc(C(=N)NC(C)C)cc3[nH]2)cc1F [Compound AB, 2-(3,5-Difluoro-4-(4-(6-(N-isopropylcarbamimidoyl)-1H-benzo[d]imidazol-2-yl)-2-methoxyphenoxy)phenyl)-N-isopropyl-1H-benzo[d]imidazole-6-carboximidamide]
pIC50 [2, 7]: 6.59 | pIC50 [4, 9]: 5.84

CC(C)NC(=N)c1ccc2nc(-c3ccc(Oc4ccc(-c5nc6ccc(C(=N)NC(C)C)cc6[nH]5)c(F)c4)c(Br)c3)[nH]c2c1 [Compound AF, 2-(3-Bromo-4-(3-fluoro-4-(6-(N-isopropylcarbamimidoyl)-1H-benzo[d]imidazol-2-yl)phenoxy)phenyl)-N-isopropyl-1H-benzo[d]imidazole-6-carboximidamide]
pIC50 [2, 7]: 6.89 | pIC50 [4, 9]: 6.12

CC(C)NC(=N)c1ccc2nc(-c3ccc(Nc4ccc(-c5nc6ccc(C(=N)NC(C)C)cc6[nH]5)cc4)cc3)[nH]c2c1 [Compound AY]
pIC50 [2, 7]: 7.40 | pIC50 [4, 9]: 5.22

COc1cc(-c2nc3ccc(C(=N)NC(C)C)cc3[nH]2)ccc1Oc1ccc(-c2nc3ccc(C(=N)NC(C)C)cc3[nH]2)cc1C#N [Compound U, 2-(3-Cyano-4-(4-(6-(N-isopropylcarbamimidoyl)-1H-benzo[d]imidazol-2-yl)-2-methoxyphenoxy)phenyl)-N-isopropyl-1H-benzo[d]imidazole-6-carboximidamide]
pIC50 [2, 7]: 6.82 | pIC50 [4, 9]: 5.84

COc1ccc(-c2nc3ccc(-c4nc5ccc(C6=NCCCCN6)cc5[nH]4)cc3[nH]2)cc1O [AM, 2-methoxy-5-(6-(4,5,6,7-tetrahydro-1H-1,3-diazepin-2-yl)-1H,3′H-[2,5′-bibenzo[d]imidazol]-2′-yl)phenol]
pIC50 [2, 7]: 6.89 | pIC50 [4, 9]: 5.71
